In one experiment the test system is HT-29 cells. As to the kind of experiment: CellTiter-Glo luminescent cell viability assay with HT-29 cells (72h incubation). The settings on record: Homo sapiens, HT-29, HT29 cells, read-out: CTG HT29. Format: cell-based, human. The protocol: Cell Titer Glo Viability Assay with HT-29 Cells (72h Incubation) The CellTiter-Glo Luminescent Cell Viability Assay (Promega) is a homogeneous method of determining the number of viable cells in culture. It is based on quantification of ATP, indicating the presence of metabolically active cells. On day 1 400 HT-29 cells per well are seeded in white 384well plates (Greiner, #781080) in 25 μl cell culture medium (DMEM (PAN-Biotech #P04-03590)+10% FCS+glutamine). After incubation for 24 h at 37° C./5% CO2 compounds or DMSO are added at different concentrations by Echo Liquid Handling Technology. Cells are further incubated in humidified chambers for 72 h at 37° C. and 5% CO2. Cells treated with the compound vehicle DMSO are used as positive controls and cells treated with 10 μM Staurosporine serve as negative controls. At day 5-72h after compound addition—the CellTiter Glo Reagent is prepared according to the instructions of the kit (Promega Inc.): Reagent is mixed 1:1 with cell culture medium. Thereon, mixture and assay plates are equilibrated at room temperature for 20 min. Equal volumes of the reagent-medium-mixture is added to the volume of culture medium present in each well. The plates are mixed at […] for 2 minutes on an orbital shaker. The microplates are then incubated at room temperature for 10 minutes for stabilization of the luminescent signal. Following incubation the luminescence is recorded on a Victor microplate reader (Perkin Elmer) using a 200 ms integration time. The data is then analyzed with Excel using the XLFIT Plugin (dose response Fit 205) for IC50-determination. As quality control the Z′-factor is calculated from 16 positive and negative control values. […] Inhibition is indicated as IC50 [nM] (“-”=not measured).
A general note: Cellular ATP, detected with luciferase, serves as a proxy for viable cell number.

Experiment [1] has as its target T1, β5 subunit of the human constitutive proteasome (CPS) (Homo sapiens, UniProt P28074).
T1 construct: purchased Boston Biochem E-360
Nature of the experiment: β5 inhibition assay, human constitutive proteasome (Suc-LLVY-AMC). Type of experiment: biochemical. The settings on record: IC50 class, Suc-LLVY-AMC substrate. The procedure: The enzymatic activity of the β5 subunit of the human constitutive proteasome (CPS) is analyzed. In another assay, which differs from the assay of the human constitutive proteasome only in using the human immunoproteasome (IPS) the enzymatic activity of the β5 subunit of the human immunoproteasome (IPS) is analyzed. […] Inhibition is indicated as IC50 [nM] (“-”=not measured).

Experiment [2] deals with T2, β5 subunit of the human immunoproteasome (IPS) (Homo sapiens, UniProt P28062).
T2 construct: purchased Boston Biochem E-370
As to the kind of experiment: β5 inhibition assay, human immunoproteasome (Suc-LLVY-AMC). Type of experiment: biochemical. The settings on record: IC50 class, Suc-LLVY-AMC substrate. The procedure: The enzymatic activity of the β5 subunit of the human constitutive proteasome (CPS) is analyzed. In another assay, which differs from the assay of the human constitutive proteasome only in using the human immunoproteasome (IPS) the enzymatic activity of the β5 subunit of the human immunoproteasome (IPS) is analyzed. Incubation of the enzyme with its fluorogenic substrate Suc-LLVY-AMC leads to liberation of the fluorescent dye AMC which can be measured with a suitable plate reader. • 100 mM HEPES pH7.5 • 50 mM NaCl • 0.02% SDS • 1 mM DTT (add fresh) • Victor X5 (Perkin Elmer) • Label: Umbeliferone (0.1s) • Excitation wavelength: 355 nm • Emission wavelength: 460 nm • 4 μl human cPS or IPS enzyme in assay buffer (final assay concentration 1 nM) or 4 μl assay buffer for negative controls • Compound addition via acoustic dispenser (Echo 520, Labcyte) • Mix and incubate @ RT for 10 min • 4 μl Suc-LLVY-AMC substrate (final assay concentration 22.6 μM) • Mix and incubate @ RT for 4 h (dark) • Stop reaction with 4 μl Bortezomib (final assay concentration 1 μM) • 15 min @ RT • Measure (Excitation 355 nm; Emission 460 nm)

SMILES strings stand for the structures.

Regarding `CC(=O)N[C@H]1CC(=O)N2CCC(C2)Oc2ccc(C)c(c2)CNC(=O)[C@H](CCc2ccccc2)NC1=O` (stereo partly drawn) [Compound 261, N-((7S,10S)-3^4-methyl-6,9,12-trioxo-7-phenethyl-2-oxa-5,8-diaza-1(3,1)-pyrrolidina-3(1,3)-benzenacyclododecaphane-10-yl)acetamide], in the experiment on HT-29 cells, the IC50 lay within 100 to 500 nM.

On to `CC(=O)N[C@H]1CC(=O)N2CC3CC(Oc4ccc(C)c(c4)CNC(=O)[C@H](CCc4ccccc4)NC1=O)C3C2` (some centres unmarked) [Compound 298, N-(3^4-methyl-6,9,12-trioxo-7-phenethyl-2-oxa-13,5,8-triaza-1(6,3)-bicyclo[3.2.0]heptana-3(1,3)-benzenacyclododecaphane-10-yl)acetamide], for which the IC50 in the experiment with HT-29 cells fell in the range of 100 to 500 nM.

`Cc1cc(CC(=O)N[C@H]2CC(=O)N3CCCC(CCOc4ccc(C)c(c4)CNC(=O)[C@H](CCc4ccccc4)NC2=O)C3)ccc1N` (stereo partly drawn) [Compound 303, 2-(4-amino-3-methylphenyl)-N-((9S,12S)-5^4-methyl-8,11,14-trioxo-9-phenethyl-4-oxa-7,10-diaza-1(3,1)-piperidina-5(1,3)-benzenacyclotetradecaphane-12-yl)acetamide]: the IC50 (in experiment [1]; in experiment [2]; in the experiment on HT-29 cells) was less than 100 nM throughout.

In the case of `Cc1ccc2cc1CNC(=O)[C@H](CCc1ccccc1)NC(=O)[C@@H](NC(=O)Cc1ccc(N)cc1C)CC(=O)N1CCCC(CCO2)C1` (stereo partly drawn) [Compound 304, 2-(4-amino-2-methylphenyl)-N-((9S,12S)-5^4-methyl-8,11,14-trioxo-9-phenethyl-4-oxa-7,10-diaza-1(3,1)-piperidina-5(1,3)-benzenacyclotetradecaphane-12-yl)acetamide], the IC50 (in experiment [1]; in experiment [2]; in the experiment on HT-29 cells) was less than 100 nM each time.

Regarding `Cc1ccc2cc1CNC(=O)[C@H](CCc1ccccc1)NC(=O)[C@@H](NC(=O)C1(c3ccc(N)cc3)CCCC1)CC(=O)N1CCCC(CCO2)C1` (stereo partly drawn) [Compound 305, 1-(4-aminophenyl)-N-((9S,12S)-5^4-methyl-8,11,14-trioxo-9-phenethyl-4-oxa-7,10-diaza-1(3,1)-piperidina-5(1,3)-benzenacyclotetradecaphane-12-yl)cyclopentane-1-carboxamide], the IC50 (in experiment [1]; in experiment [2]; with HT-29 cells) was less than 100 nM each time.

`Cc1ccc2cc1CNC(=O)[C@H](CCc1ccccc1)NC(=O)[C@@H](NC(=O)C1(c3ccc(N)cc3)CCC1)CC(=O)N1CCCC(CCO2)C1` (stereo partly drawn) [Compound 306, 1-(4-aminophenyl)-N-((9S,12S)-5^4-methyl-8,11,14-trioxo-9-phenethyl-4-oxa-7,10-diaza-1(3,1)-piperidina-5(1,3)-benzenacyclotetradecaphane-12-yl)cyclobutane-1-carboxamide]: the IC50 (in experiment [1]; in experiment [2]; with HT-29 cells) was less than 100 nM each time.

Take `Cc1ccc2cc1CNC(=O)[C@H](CCc1ccccc1)NC(=O)[C@@H](NC(=O)C1(c3ccc(N)cc3)CC1)CC(=O)N1CCCC(CCO2)C1` (stereo partly drawn) [Compound 307, 1-(4-aminophenyl)-N-((9S,12S)-5^4-methyl-8,11,14-trioxo-9-phenethyl-4-oxa-7,10-diaza-1(3,1)-piperidina-5(1,3)-benzenacyclotetradecaphane-12-yl)cyclopropane-1-carboxamide]: the IC50 (in experiment [1]; in experiment [2]; in the experiment on HT-29 cells) was less than 100 nM each time.

Turning to `Cc1ccc2cc1CNC(=O)[C@H](CCc1ccccc1)NC(=O)[C@@H](NC(=O)C(C)(C)c1ccc(N)cc1)CC(=O)N1CCCC(CCO2)C1` (stereo partly drawn) [Compound 308, 2-(4-aminophenyl)-2-methyl-N-((9S,12S)-5^4-methyl-8,11,14-trioxo-9-phenethyl-4-oxa-7,10-diaza-1(3,1)-piperidina-5(1,3)-benzenacyclotetradecaphane-12-yl)propanamide], the IC50 (in experiment [1]; in experiment [2]; in the experiment on HT-29 cells) was less than 100 nM each time.

Take `Cc1ccc2cc1CNC(=O)[C@H](CCc1ccccc1)NC(=O)[C@@H](NC(=O)OCc1ccccc1)CC(=O)N(C)CCO2` [Compound 312, benzyl ((8S,11S)-1^4,5-dimethyl-6,9,12-trioxo-11-phenethyl-2-oxa-5,10,13-triaza-1(1,3)-benzenacyclotetradecaphane-8-yl)carbamate]: the IC50 in experiment [1] is greater than 5000 nM; in experiment [2] it was 100 to 500 nM; in the experiment with HT-29 cells, 100 to 500 nM.

For the molecule `Cc1ccc2cc1CNC(=O)[C@H](CCc1ccccc1)NC(=O)[C@@H](NC(=O)OCc1ccccc1)CC(=O)N1CC(CCO2)Cc2ccccc21` (stereo partly drawn) [Compound 313, benzyl ((9S, 12S)-5^4-methyl-8,11,14-trioxo-9-phenethyl-11,12,13,14-tetrahydro-4-oxa-7,10-diaza-1(3,1)-quinolina-5(1,3)-benzenacyclotetradecaphane-12-yl)carbamate], the IC50 was greater than 5000 nM in experiment [1], 500 to 1000 nM in experiment [2] and 100 to 500 nM in the experiment on HT-29 cells.

As to `Cc1ccc2cc1CNC(=O)[C@H](CCc1ccccc1)NC(=O)[C@@H](NC(=O)OCc1ccccc1)CC(=O)N1CC(CCO2)CCC1C` (stereo partly drawn) [Compound 315, benzyl ((9S,12S)-1^6,5^4-dimethyl-8,11,14-trioxo-9-phenethyl-4-oxa-7,10-diaza-1(3,1)-piperidina-5(1,3)-benzenacyclotetradecaphane-12-yl)carbamate], the IC50 (in experiment [1]; in experiment [2]; in the experiment with HT-29 cells) was less than 100 nM in each case.

Consider `Cc1ccc2cc1CNC(=O)[C@H](CCc1ccccc1)NC(=O)[C@@H](NC(=O)c1cccc3c1CNCC3)CC(=O)N1CCCC(CCO2)C1` (stereo partly drawn) [Compound 316, N-((9S,12S)-5^4-methyl-8,11,14-trioxo-9-phenethyl-4-oxa-7,10-diaza-1(3,1)-piperidina-5(1,3)-benzenacyclotetradecaphane-12-yl)-1,2,3,4-tetrahydroisoquinoline-5-carboxamide], for which the IC50 (in experiment [1]; in experiment [2]; with HT-29 cells) was less than 100 nM throughout.

With `Cc1ccc2cc1CNC(=O)[C@H](CCc1ccccc1)NC(=O)[C@@H](NC(=O)C1CCc3cc(N)ccc31)CC(=O)N1CCCC(CCO2)C1` (stereo partly drawn) [Compound 317, 5-amino-N-((9S,12S)-5^4-methyl-8,11,14-trioxo-9-phenethyl-4-oxa-7,10-diaza-1(3,1)-piperidina-5(1,3)-benzenacyclotetradecaphane-12-yl)-2,3-dihydro-1H-indene-1-carboxamide], the IC50 (in experiment [1]; in experiment [2]; with HT-29 cells) was less than 100 nM throughout.

As for `Cc1ccc2cc1CNC(=O)C(CCc1ccccc1)NC(=O)CCC(=O)N1CCCC(CCO2)C1` (centres unmarked) [Compound 495, 5^4-methyl-9-phenethyl-4-oxa-7,10-diaza-1(3,1)-piperidina-5(1,3)-benzenacyclotetradecaphane-8,11,14-trione], the IC50 in the experiment on HT-29 cells lay within 100 to 500 nM.

Consider `CC(=O)N[C@H]1CC(=O)N2CCCC(CCOc3ccc(C)c(c3)CNC(=O)C(CCc3ccccc3)NC1=O)C2` (stereo partly drawn) [Compound 550, N-((12S)-5^4-methyl-8,11,14-trioxo-9-phenethyl-4-oxa-7,10-diaza-1(3,1)-piperidina-5(1,3)-benzenacyclotetradecaphane-12-yl)acetamide], for which the IC50 in the experiment on HT-29 cells was less than 100 nM.

Turning to `CC(=O)N[C@H]1CC(=O)N2CCCC(CCOc3ccc(C)c(c3)CNC(=O)C(c3cnn(CCS(=O)(=O)O)c3)NC1=O)C2` (stereo partly drawn) [Compound 572, N-(4-((12S)-12-acetamido-5^4-methyl-8,11,14-trioxo-4-oxa-7,10-diaza-1(3,1)-piperidina-5(1,3)-benzenacyclotetradecaphane-9-yl)-1H-pyrazol-1-yl)ethane-1-sulfonic acid], in the experiment on HT-29 cells, the IC50 fell in the range of 100 to 500 nM.
